How the values were obtained:
[1] = tested on: U87 cell line; test: U87 glioblastoma viability loss – cell-based, luminescence, U87 vII, cytotoxicity control for Wee1 degradation inhibitor project, dose response (AID 504935); conditions: U87 cells cytotoxicity
[2] = tested on: U87 vII cell line; test: as above; conditions: U87 cells cytotoxicity

## O=[N+]([O-])c1cccc2[nH]c(CNc3nc(N4CCOCC4)nc4c3ncn4-c3ccsc3)nc12
[1]
  IC50: 0.0951 µM
[2]
  IC50: 0.0234 µM
